Measured values published in US20140005163A1 (NOVARTIS AG, priority 2010, published 2014).

Assays:
PI3K alpha = target: T1, PI3K alpha (Homo sapiens, UniProt P42336); experiment: PI3K alpha kinase assay (Kinase-Glo luminescence); assay type: biochemical
T1 construct: p85(iSH2) fusion partner (see partner chain) (N); His tag (C); made in house; host or cells: baculovirus; Tn5 (Trichoplusia ni) or TiniPro insect cells
Outline: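 PI3K alpha at 10 nM with 1 μM ATP and 10 μg/mL phosphatidylinositol in 10 mM TRIS pH 7.5, 3 mM MgCl2, 50 mM NaCl, 0.05% CHAPS, 1 mM DTT, 60 min at room temperature. Remaining ATP read by Kinase-Glo luminescence. IC50 by 4-parameter fit over 8 concentrations.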

[1] = system: PKB Ser473 phosphorylation in Rat1-myr-HA-p110 alpha cells; experiment: Reverse protein array assay, PKB Ser473 phosphorylation in Rat1-myr-p110 alpha cells; assay type: cell-based; conditions: 0.5 h, pAkt Ser473, 30 minutes compound incubation, read-out: p-PKB IC50
Outline: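 Measured: PKB Ser473 phosphorylation by reverse protein array in Rat1 cells expressing myr-HA-p110 alpha, beta or delta, after 30 min compound treatment at 37 °C with 0.2% DMSO vehicle.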

[2] = system: S6 Ribosomal Protein phosphorylation Ser235/236 in TSC1 null mouse embryo fibroblast (MEF) cells; experiment: Reverse protein array assay, S6 Ribosomal Protein phosphorylation Ser235/236 in TSC1 null MEF cells; assay type: cell-based; conditions: 1 h, pS6 ribosomal protein Ser235/236, 60 minutes incubation, read-out: p-S6 IC50
Outline: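 TSC1−/− MEFs, seeded and held ≥20 h at 37 °C/5% CO2, were exposed to 8-step serial compound dilutions (0.02% DMSO final; DMSO vehicle control) for 60 min at 37 °C. Cells were then lysed on ice for 10 min and lysates spotted onto reverse protein array chips.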

T1 sequence (P42336 with tags, fused parts or gaps limits assumed): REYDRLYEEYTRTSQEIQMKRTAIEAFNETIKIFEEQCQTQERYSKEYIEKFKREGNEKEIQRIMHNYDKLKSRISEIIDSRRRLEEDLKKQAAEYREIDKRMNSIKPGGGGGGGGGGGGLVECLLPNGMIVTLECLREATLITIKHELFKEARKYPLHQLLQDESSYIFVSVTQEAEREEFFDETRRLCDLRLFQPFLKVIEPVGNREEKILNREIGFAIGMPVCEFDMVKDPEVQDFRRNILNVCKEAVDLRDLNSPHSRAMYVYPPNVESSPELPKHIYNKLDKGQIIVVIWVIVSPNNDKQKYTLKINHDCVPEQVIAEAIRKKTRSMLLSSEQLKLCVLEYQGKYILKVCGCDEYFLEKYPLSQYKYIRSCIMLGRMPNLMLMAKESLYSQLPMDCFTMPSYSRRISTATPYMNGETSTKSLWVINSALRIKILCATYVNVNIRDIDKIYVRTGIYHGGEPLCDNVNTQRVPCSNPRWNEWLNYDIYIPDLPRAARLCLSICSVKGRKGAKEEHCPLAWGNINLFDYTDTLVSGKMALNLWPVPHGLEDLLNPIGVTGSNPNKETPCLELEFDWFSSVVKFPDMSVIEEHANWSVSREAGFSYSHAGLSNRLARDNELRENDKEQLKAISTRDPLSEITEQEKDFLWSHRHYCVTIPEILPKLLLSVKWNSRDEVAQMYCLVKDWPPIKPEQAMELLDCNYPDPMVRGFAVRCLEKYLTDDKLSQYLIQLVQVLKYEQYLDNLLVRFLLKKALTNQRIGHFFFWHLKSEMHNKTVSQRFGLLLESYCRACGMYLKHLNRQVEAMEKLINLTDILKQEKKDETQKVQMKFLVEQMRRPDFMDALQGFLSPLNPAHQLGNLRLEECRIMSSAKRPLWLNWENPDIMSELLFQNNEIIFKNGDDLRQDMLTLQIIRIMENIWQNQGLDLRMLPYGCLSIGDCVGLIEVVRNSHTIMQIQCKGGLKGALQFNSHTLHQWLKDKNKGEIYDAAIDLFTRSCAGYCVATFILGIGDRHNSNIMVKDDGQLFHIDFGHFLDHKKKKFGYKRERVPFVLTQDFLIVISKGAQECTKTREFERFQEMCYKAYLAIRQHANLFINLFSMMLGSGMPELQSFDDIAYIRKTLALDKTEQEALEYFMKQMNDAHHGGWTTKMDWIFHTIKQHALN

CN(C)c1ccc(-c2ccc3ncc4c(c3c2)n(-c2cn(C)nc2Cl)c(=O)n4C)cn1 [Example 4.9, 1-(3-Chloro-1-methyl-1H-pyrazol-4-yl)-8-(6-dimethylamino-pyridin-3-yl)-3-methyl-1,3-dihydro-imidazo[4,5-c]quinolin-2-one]
IC50 (PI3K alpha): 9 nM | IC50 [1]: 5 nM | IC50 [2]: 2 nM

CN(C)c1ncc(-c2ccc3ncc4c(c3c2)n(-c2cn(C)nc2Cl)c(=O)n4C)cn1 [Example 6.3, 1-(3-Chloro-1-methyl-1H-pyrazol-4-yl)-8-(2-dimethylamino-pyrimidin-5-yl)-3-methyl-1,3-dihydro-imidazo[4,5-c]quinolin-2-one]
IC50 (PI3K alpha): 8 nM | IC50 [1]: 9 nM | IC50 [2]: 8 nM

Cc1nn(C)cc1-n1c(=O)n(C)c2cnc3ccc(-c4cnc(N)c(C(F)(F)F)c4)cc3c21 [Example 25.1, 8-(6-Amino-5-trifluoromethyl-pyridin-3-yl)-1-(1,3-dimethyl-1H-pyrazol-4-yl)-3-methyl-1,3-dihydro-imidazo[4,5-c]quinolin-2-one]
IC50 (PI3K alpha): 14 nM | IC50 [1]: 5 nM | IC50 [2]: 1 nM

Cc1cc(-n2c(=O)n(C)c3cnc4ccc(-c5cnc(N)c(C(F)(F)F)c5)cc4c32)n(C)n1 [Example 25.6, 8-(6-Amino-5-trifluoromethyl-pyridin-3-yl)-1-(2,5-dimethyl-2H-pyrazol-3-yl)-3-methyl-1,3-dihydro-imidazo[4,5-c]quinolin-2-one]
IC50 (PI3K alpha): 41 nM | IC50 [1]: 8 nM | IC50 [2]: 1 nM

CNS(=O)(=O)c1cccc(-c2ccc3ncc4c(c3c2)n(-c2cn(C)nc2C)c(=O)n4C)c1 [Example 39, 3-[1-(1,3-Dimethyl-1H-pyrazol-4-yl)-3-methyl-2-oxo-2,3-dihydro-1H-imidazo[4,5-c]quinolin-8-yl]-N-methyl-benzenesulfonamide]
IC50 (PI3K alpha): < 3 nM | IC50 [1]: 35 nM | IC50 [2]: 37 nM

Cc1nn(C)cc1-n1c(=O)n(C)c2cnc3ccc(-c4cccc(NS(C)(=O)=O)c4)cc3c21 [Example 47, N-{3-[1-(1,3-dimethyl-1H-pyrazol-4-yl)-3-methyl-2-oxo-2,3-dihydro-1H-imidazo[4,5-c]quinolin-8-yl]-phenyl}-methanesulfonamide]
IC50 (PI3K alpha): 73 nM | IC50 [1]: 73 nM | IC50 [2]: 127 nM

CC(C)Oc1cncc(-c2ccc3ncc4c(c3c2)n(-c2cn(C)nc2Cl)c(=O)n4C)c1 [Example 58.2, 1-(3-Chloro-1-methyl-1H-pyrazol-4-yl)-8-(5-isopropoxy-pyridin-3-yl)-3-methyl-1,3-dihydro-imidazo[4,5-c]quinolin-2-one]
IC50 (PI3K alpha): 6 nM | IC50 [1]: 9 nM | IC50 [2]: 4 nM

Cc1nn(C)cc1-n1c(=O)n(C)c2cnc3ccc(-c4cncc(OC5CCC5)c4)cc3c21 [Example 60.1, 8-(5-Cyclobutoxy-pyridin-3-yl)-1-(1,3-dimethyl-1H-pyrazol-4-yl)-3-methyl-1,3-dihydro-imidazo[4,5-c]quinolin-2-one]
IC50 (PI3K alpha): < 3 nM | IC50 [1]: < 5 nM | IC50 [2]: 1 nM

Cc1nn(C)cc1-n1c(=O)n(C)c2cnc3ccc(-c4ccc(-c5ncc[nH]5)cc4)cc3c21 [Example 77, 1-(1,3-Dimethyl-1H-pyrazol-4-yl)-8-[4-(1H-imidazol-2-yl)-phenyl]-3-methyl-1,3-dihydro-imidazo[4,5-c]quinolin-2-one]
IC50 (PI3K alpha): 5 nM | IC50 [1]: 7 nM | IC50 [2]: 5 nM

Cc1nn(C)cc1-n1c(=O)n(C)c2cnc3ccc(-c4cccc(OC(C)C)c4)cc3c21 [Example 82, 1-(1,3-Dimethyl-1H-pyrazol-4-yl)-8-(3-isopropoxy-phenyl)-3-methyl-1,3-dihydro-imidazo[4,5-c]quinolin-2-one]
IC50 (PI3K alpha): 39 nM | IC50 [1]: 44 nM | IC50 [2]: 17 nM

CCN(CC)c1cncc(-c2ccc3ncc4c(c3c2)n(-c2cn(C)nc2C)c(=O)n4C)c1 [Example 95, 8-(5-Diethylamino-pyridin-3-yl)-1-(1,3-dimethyl-1H-pyrazol-4-yl)-3-methyl-1,3-dihydro-imidazo[4,5-c]quinolin-2-one]
IC50 (PI3K alpha): 36 nM | IC50 [1]: < 5 nM | IC50 [2]: 1 nM

Cc1nn(C)cc1-n1c(=O)n(C)c2cnc3ccc(-c4ccc(N5CCCC5)nc4)cc3c21 [Example 97, 1-(1,3-Dimethyl-1H-pyrazol-4-yl)-3-methyl-8-(6-pyrrolidin-1-yl-pyridin-3-yl)-1,3-dihydro-imidazo[4,5-c]quinolin-2-one]
IC50 (PI3K alpha): 85 nM | IC50 [1]: 7 nM | IC50 [2]: 3 nM

CNc1ncc(-c2ccc3ncc4c(c3c2)n(-c2cn(C)nc2Cl)c(=O)n4C)cc1C [Example 119, 1-(3-Chloro-1-methyl-1H-pyrazol-4-yl)-3-methyl-8-(5-methyl-6-methylamino-pyridin-3-yl)-1,3-dihydro-imidazo[4,5-c]quinolin-2-one]
IC50 (PI3K alpha): 16 nM | IC50 [1]: 6 nM | IC50 [2]: 1 nM

Cc1nn(C)cc1-n1c(=S)n(C)c2cnc3ccc(-c4cccnc4)cc3c21 [Example 128.1, 1-(1,3-Dimethyl-1H-pyrazol-4-yl)-3-methyl-8-pyridin-3-yl-1,3-dihydro-imidazo[4,5-c]quinoline-2-thione]
IC50 (PI3K alpha): 11 nM | IC50 [1]: 5 nM | IC50 [2]: 9 nM

COc1ccc(-c2ccc3ncc4c(c3c2)n(-c2cn(C)nc2C)c(=S)n4C)cc1OC [Example 128.2, 8-(3,4-Dimethoxy-phenyl)-1-(1,3-dimethyl-1H-pyrazol-4-yl)-3-methyl-1,3-dihydro-imidazo[4,5-c]quinoline-2-thione]
IC50 (PI3K alpha): 11 nM | IC50 [1]: < 5 nM | IC50 [2]: 1 nM

CNc1ncc(-c2ccc3ncc4c(c3c2)n(-c2cn(C(C)C)nc2C)c(=O)n4C)cc1C(F)(F)F [Example 144.2, 1-(1-Isopropyl-3-methyl-1H-pyrazol-4-yl)-3-methyl-8-(6-methylamino-5-trifluoromethyl-pyridin-3-yl)-1,3-dihydro-imidazo[4,5-c]quinolin-2-one]
IC50 (PI3K alpha): 8 nM | IC50 [1]: < 5 nM | IC50 [2]: 1 nM

CCNc1ncc(-c2ccc3ncc4c(c3c2)n(-c2cn(C)nc2C)c(=O)n4C)cc1C(F)(F)F [Example 145.2, 1-(1,3-Dimethyl-1H-pyrazol-4-yl)-8-(6-ethylamino-5-trifluoromethyl-pyridin-3-yl)-3-methyl-1,3-dihydro-imidazo[4,5-c]quinolin-2-one]
IC50 (PI3K alpha): 27 nM | IC50 [1]: 9 nM | IC50 [2]: 0.94 nM

CCn1cc(-n2c(=O)n(C)c3cnc4ccc(-c5cnc(N)c(Cl)c5)cc4c32)c(C)n1 [Example 148.3, 8-(6-Amino-5-chloro-pyridin-3-yl)-1-(1-ethyl-3-methyl-1H-pyrazol-4-yl)-3-methyl-1,3-dihydro-imidazo[4,5-c]quinolin-2-one]
IC50 (PI3K alpha): 7 nM | IC50 [1]: < 5 nM | IC50 [2]: 1 nM

Cc1cc(-n2c(=O)n(C)c3cnc4ccc(-c5cnc(F)c(N)c5)cc4c32)n(C)n1 [Example 149.3, 8-(5-Amino-6-fluoro-pyridin-3-yl)-1-(2,5-dimethyl-2H-pyrazol-3-yl)-3-methyl-1,3-dihydro-imidazo[4,5-c]quinolin-2-one]
IC50 (PI3K alpha): 63 nM | IC50 [1]: 49 nM | IC50 [2]: 6.94 nM

Cc1nn(C(C)C)cc1-n1c(=O)n(C)c2cnc3ccc(-c4cnc(Cl)c(N)c4)cc3c21 [Example 152.1, 8-(5-Amino-6-chloro-pyridin-3-yl)-1-(1-isopropyl-3-methyl-1H-pyrazol-4-yl)-3-methyl-1,3-dihydro-imidazo[4,5-c]quinolin-2-one]
IC50 (PI3K alpha): 27 nM | IC50 [1]: 7 nM | IC50 [2]: 2 nM

Cc1nn(C)c(C)c1-n1c(=O)n(C)c2cnc3ccc(-c4cnc(Cl)c(N)c4)cc3c21 [Example 152.3, 8-(5-Amino-6-chloro-pyridin-3-yl)-3-methyl-1-(1,3,5-trimethyl-1H-pyrazol-4-yl)-1,3-dihydro-imidazo[4,5-c]quinolin-2-one]
IC50 (PI3K alpha): 44 nM | IC50 [1]: 123 nM | IC50 [2]: 20 nM

CCOCc1cc(-c2ccc3ncc4c(c3c2)n(-c2cn(C(C)C)nc2C)c(=O)n4C)cnc1N [Example 166.3, 8-(6-Amino-5-ethoxymethyl-pyridin-3-yl)-1-(1-isopropyl-3-methyl-1H-pyrazol-4-yl)-3-methyl-1,3-dihydro-imidazo[4,5-c]quinolin-2-one]
IC50 (PI3K alpha): 10 nM | IC50 [1]: 40 nM | IC50 [2]: 5 nM

CCOCc1cc(-c2ccc3ncc4c(c3c2)n(-c2cn(C)nc2Cl)c(=O)n4C)cnc1N [Example 166.4, 8-(6-Amino-5-ethoxymethyl-pyridin-3-yl)-1-(3-chloro-1-methyl-1H-pyrazol-4-yl)-3-methyl-1,3-dihydro-imidazo[4,5-c]quinolin-2-one]
IC50 (PI3K alpha): 9 nM | IC50 [1]: 5 nM | IC50 [2]: 1 nM

Cc1nn(C(C)C)cc1-n1c(=O)n(C)c2cnc3ccc(-c4cnc5c(c4)COC(=O)N5C)cc3c21 [Example 170, 1-(1-Isopropyl-3-methyl-1H-pyrazol-4-yl)-3-methyl-8-(1-methyl-2-oxo-1,4-dihydro-2H-pyrido[2,3-d][1,3]oxazin-6-yl)-1,3-dihydro-imidazo[4,5-c]quinolin-2-one]
IC50 (PI3K alpha): 55 nM | IC50 [1]: 268 nM | IC50 [2]: 79 nM
